The record followed here is patent publication US10537558B2 (Bantam Pharmaceutical, LLC, priority 2015, dated 2020).

For this assay, the system named is BJAB cells. Briefly: BJAB cell proliferation (Cell Titer Glo). It is filed as cell-based. Particulars: Homo sapiens, read-out: EC50. Here is the method: Cells were seeded in white Corning Costar 96-well assay plates at 2500 cells/well in 50 μL of medium. Serial dilutions of test compounds were made in cell culture medium/FBS+0.2% DMSO, and transferred to assay plates in a volume of 50 μL (DMSO at 0.1% final). Plates were maintained at 37° C. for approximately 72 hours. The effect of compounds on cell proliferation was evaluated using the Cell Titer Glo reagent (Promega), according to the manufacturer's instructions. Briefly, 100 μL of reagent was added per well, and after a 10 minute incubation luminescence values were determined on a plate reader (Tecan F200PRO). The percent of luminescence signal relative to untreated controls was calculated for each compound concentration, and EC50 values were determined from dose response data by non-linear regression analysis using Prism (GraphPad). The mTor inhibitor Torin1 (Liu, et al. (2010) J. Med. Chem. 53, 7146.) was used as a control. The data are summarized in the compound table provided above.
In the case of `Cc1nn(-c2nc(-c3ccc(Cl)c(Cl)c3)c(SC(C)C)s2)c(C(=O)O)c1-c1cccc(Cl)c1C` [Compound 59, 4-(3-chloro-2-methylphenyl)-1-(4-(3,4-dichlorophenyl)-5-(isopropylthio)thiazol-2-yl)-3-methyl-1H-pyrazole-5-carboxylic Acid], the EC50 fell in the range of 5 to 10 µM.

On to `Cc1nn(-c2nc(-c3ccc(Cl)c(Cl)c3)c(SC(C)C)s2)c(C(=O)O)c1-c1cc(C(F)(F)F)cc(C(F)(F)F)c1` [Compound 60, 4-(3,5-bis(trifluoromethyl)phenyl)-1-(4-(3,4-dichlorophenyl)-5-(isopropylthio)thiazol-2-yl)-3-methyl-1H-pyrazole-5-carboxylic Acid], for which the EC50 was 1 to 5 µM.

`Cc1nn(-c2nc(-c3ccc(Cl)c(Cl)c3)c(SC(C)C)s2)c(C(=O)O)c1-c1cccc(C(C)C)c1` [Compound 61, 1-(4-(3,4-dichlorophenyl)-5-(isopropylthio)thiazol-2-yl)-4-(3-isopropylphenyl)-3-methyl-1H-pyrazole-5-carboxylic Acid]: the concentration giving a half-maximal response (EC50) lay in the range of 1 to 5 µM.

For the compound `COc1ccc(C)cc1-c1c(C)nn(-c2nc(-c3ccc(Cl)c(Cl)c3)c(SC(C)C)s2)c1C(=O)O` [Compound 62, 1-(4-(3,4-dichlorophenyl)-5-(isopropylthio)thiazol-2-yl)-4-(2-methoxy-5-methylphenyl)-3-methyl-1H-pyrazole-5-carboxylic acid], the concentration for a half-maximal effect (EC50) was in the range of 5 to 10 µM.

Regarding `Cc1nn(-c2nc(-c3ccc(Cl)c(Cl)c3)c(SC(C)C)s2)c(C(=O)O)c1-c1ncc[nH]1` [Compound 63, 1-(4-(3,4-dichlorophenyl)-5-(isopropylthio)thiazol-2-yl)-4-(1H-imidazol-2-yl)-3-methyl-1H-pyrazole-5-carboxylic acid], the concentration for a half-maximal effect (EC50) was 10 to 25 µM.

As to `Cc1nn(-c2nc(-c3ccc(Cl)c(Cl)c3)c(SC(C)C)s2)c(C(=O)O)c1-c1cnn2ccccc12` [Compound 64, 1-(4-(3,4-dichlorophenyl)-5-(isopropylthio)thiazol-2-yl)-3-methyl-4-(pyrazolo[1,5-a]pyridin-3-yl)-1H-pyrazole-5-carboxylic acid], the EC50 is 10 to 25 µM.

Turning to `Cc1nn(-c2nc(-c3ccc(Cl)c(Cl)c3)c(SC(C)C)s2)c(C(=O)O)c1-c1cnn2cccnc12` [Compound 65, 1-(4-(3,4-dichlorophenyl)-5-(isopropylthio)thiazol-2-yl)-3-methyl-4-(pyrazolo[1,5-a]pyrimidin-3-yl)-1H-pyrazole-5-carboxylic acid], the EC50 was in the range of 25 to 50 µM.

As for `Cc1nn(-c2nc(-c3ccc(Cl)c(Cl)c3)c(SC(C)C)s2)c(C(=O)O)c1-c1cnn(C)c1` [Compound 66, 2-(4-(3,4-dichlorophenyl)-5-(isopropylthio)thiazol-2-yl)-2′,5-dimethyl-4,4′-bi(2H-pyrazole)-3-carboxylic acid], the EC50 was in the range of 5 to 10 µM.

In the case of `Cc1nn(-c2nc(-c3ccc(Cl)c(Cl)c3)c(S(=O)(=O)C(C)C)s2)c(C(=O)O)c1-c1cnn(C)c1` [Compound 67, 2-(4-(3,4-dichlorophenyl)-5-(isopropylsulfonyl)thiazol-2-yl)-2′,5-dimethyl-4,4′-bi(2H-pyrazole)-3-carboxylic acid], the EC50 was 25 to 50 µM.

Turning to `Cc1nn(-c2nc(-c3ccc(Cl)c(Cl)c3)c(SC(C)C)s2)c(C(=O)O)c1-c1nc2ccccc2n1C` [Compound 68, 1-(4-(3,4-dichlorophenyl)-5-(isopropylthio)thiazol-2-yl)-3-methyl-4-(1-methy-1H-benzo[d]imidazol-2-yl)-1H-pyrazole-5-carboxylic acid], the EC50 is over 50 µM.

For `Cc1nn(-c2nc(-c3ccc(Cl)c(Cl)c3)c(SC(C)C)s2)c(C(=O)O)c1-c1cncc(C#N)c1` [Compound 69, 4-(5-cyanopyridin-3-yl)-1-(4-(3,4-dichlorophenyl)-5-(isopropylthio)thiazol-2-yl)-3-methyl-1H-pyrazole-5-carboxylic Acid], the concentration for a half-maximal effect (EC50) lay in the range of 10 to 25 µM.

As for `CCOc1ncccc1-c1c(C)nn(-c2nc(-c3ccc(Cl)c(Cl)c3)c(SC(C)C)s2)c1C(=O)O` [Compound 70, 1-(4-(3,4-dichlorophenyl)-5-(isopropylthio)thiazol-2-yl)-4-(2-ethoxypyridin-3-yl)-3-methyl-1H-pyrazole-5-carboxylic Acid], the EC50 lay within 10 to 25 µM.

Consider `Cc1cc(-c2c(C)nn(-c3nc(-c4ccc(Cl)c(Cl)c4)c(SC(C)C)s3)c2C(=O)O)n(C)n1` [Compound 71, 2′-(4-(3,4-dichlorophenyl)-5-(isopropylthio)thiazol-2-yl)-2,5,5′-trimethyl-3,4′-bi(2H-pyrazole)-3′-carboxylic Acid], for which the EC50 is 10 to 25 µM.

Consider `Cc1nn(-c2nc(-c3ccc(Cl)c(Cl)c3)c(SC(C)C)s2)c(C(=O)O)c1-c1cncnc1` [Compound 72, 1-(4-(3,4-dichlorophenyl)-5-(isopropylthio)thiazol-2-yl)-3-methyl-4-(pyrimidin-5-yl)-1H-pyrazole-5-carboxylic Acid], for which the EC50 fell in the range of 10 to 25 µM.

For the compound `Cc1nn(-c2nc(-c3ccc(Cl)c(Cl)c3)c(SC(C)C)s2)c(C(N)=O)c1-c1cc(C(F)(F)F)cc(C(F)(F)F)c1` [Compound 73, 4-(3,5-bis(trifluoromethyl)phenyl)-1-(4-(3,4-dichlorophenyl)-5-(isopropylthio)thiazol-2-yl)-3-methyl-1H-pyrazole-5-carboxamide], the EC50 was over 40 µM.

Take `Cc1cc(C)nc(-c2c(C)nn(-c3nc(-c4ccc(Cl)c(Cl)c4)c(SC(C)C)s3)c2C(=O)O)n1` [Compound 74, 1-(4-(3,4-dichlorophenyl)-5-(isopropylthio)thiazol-2-yl)-4-(4,6-dimethylpyrimidin-2-yl)-3-methyl-1H-pyrazole-5-carboxylic acid]: the concentration giving a half-maximal response (EC50) was in the range of 25 to 50 µM.

Regarding `Cc1nn(-c2nc(-c3ccc(Cl)c(Cl)c3)c(SC(C)C)s2)c(C(=O)NCc2ccccn2)c1-c1cc(C(F)(F)F)cc(C(F)(F)F)c1` [Compound 75, 4-(3,5-bis(trifluoromethyl)phenyl)-1-(4-(3,4-dichlorophenyl)-5-(isopropylthio)thiazol-2-yl)-3-methyl-N-(pyridin-2-ylmethyl)-1H-pyrazole-5-carboxamide], the concentration for a half-maximal effect (EC50) was over 40 µM.

With `Cc1nn(-c2nc(-c3ccc(Cl)c(Cl)c3)c(SC(C)C)s2)c(C(=O)N(C)CCO)c1-c1cc(C(F)(F)F)cc(C(F)(F)F)c1` [Compound 76, 4-(3,5-bis(trifluoromethyl)phenyl)-1-(4-(3,4-dichlorophenyl)-5-(isopropylthio)thiazol-2-yl)-N-(2-hydroxyethyl)-N,3-dimethyl-1H-pyrazole-5-carboxamide], the EC50 is over 40 µM.

Regarding `Cc1nn(-c2nc(-c3ccc(Cl)c(Cl)c3)c(SC(C)C)s2)c(C(=O)N(C)c2nnc(C(F)(F)F)s2)c1-c1cc(C(F)(F)F)cc(C(F)(F)F)c1` [Compound 77, 4-(3,5-bis(trifluoromethyl)phenyl)-1-(4-(3,4-dichlorophenyl)-5-(isopropylthio)thiazol-2-yl)-N,3-dimethyl-N-(5-(trifluoromethyl)-1,3,4-thiadiazol-2-yl)-1H-pyrazole-5-carboxamide], the EC50 is over 40 µM.

Regarding `CCN(CC)C1CCN(C(=O)c2c(-c3cc(C(F)(F)F)cc(C(F)(F)F)c3)c(C)nn2-c2nc(-c3ccc(Cl)c(Cl)c3)c(SC(C)C)s2)C1` (centres unmarked) [Compound 78, (4-(3,5-bis(trifluoromethyl)phenyl)-1-(4-(3,4-dichlorophenyl)-5-(isopropylthio)thiazol-2-yl)-3-methyl-1H-pyrazol-5-yl)(3-(diethylamino)pyrrolidin-1-yl)methanone], the half-maximal effective concentration (EC50) was over 40 µM.
